Consider 26 compounds from patent US20070021434A1, “NON-NUCLEOSIDE ANTI-HEPACIVIRUS AGENTS AND USES THEREOF” (Migenix Inc., priority 2005, published 2007).

Bounds are passed on as bounds.

Broadly, the IC50 is the concentration at which inhibition is half-maximal. Read a low IC50 as greater potency.

For this assay, the target named is HCV RdRp (NS5B) (UniProt P26663). In kind it is biochemical, hepatitis C virus.
HCV RdRp (NS5B), sequence (P26663 whole entry, looked up): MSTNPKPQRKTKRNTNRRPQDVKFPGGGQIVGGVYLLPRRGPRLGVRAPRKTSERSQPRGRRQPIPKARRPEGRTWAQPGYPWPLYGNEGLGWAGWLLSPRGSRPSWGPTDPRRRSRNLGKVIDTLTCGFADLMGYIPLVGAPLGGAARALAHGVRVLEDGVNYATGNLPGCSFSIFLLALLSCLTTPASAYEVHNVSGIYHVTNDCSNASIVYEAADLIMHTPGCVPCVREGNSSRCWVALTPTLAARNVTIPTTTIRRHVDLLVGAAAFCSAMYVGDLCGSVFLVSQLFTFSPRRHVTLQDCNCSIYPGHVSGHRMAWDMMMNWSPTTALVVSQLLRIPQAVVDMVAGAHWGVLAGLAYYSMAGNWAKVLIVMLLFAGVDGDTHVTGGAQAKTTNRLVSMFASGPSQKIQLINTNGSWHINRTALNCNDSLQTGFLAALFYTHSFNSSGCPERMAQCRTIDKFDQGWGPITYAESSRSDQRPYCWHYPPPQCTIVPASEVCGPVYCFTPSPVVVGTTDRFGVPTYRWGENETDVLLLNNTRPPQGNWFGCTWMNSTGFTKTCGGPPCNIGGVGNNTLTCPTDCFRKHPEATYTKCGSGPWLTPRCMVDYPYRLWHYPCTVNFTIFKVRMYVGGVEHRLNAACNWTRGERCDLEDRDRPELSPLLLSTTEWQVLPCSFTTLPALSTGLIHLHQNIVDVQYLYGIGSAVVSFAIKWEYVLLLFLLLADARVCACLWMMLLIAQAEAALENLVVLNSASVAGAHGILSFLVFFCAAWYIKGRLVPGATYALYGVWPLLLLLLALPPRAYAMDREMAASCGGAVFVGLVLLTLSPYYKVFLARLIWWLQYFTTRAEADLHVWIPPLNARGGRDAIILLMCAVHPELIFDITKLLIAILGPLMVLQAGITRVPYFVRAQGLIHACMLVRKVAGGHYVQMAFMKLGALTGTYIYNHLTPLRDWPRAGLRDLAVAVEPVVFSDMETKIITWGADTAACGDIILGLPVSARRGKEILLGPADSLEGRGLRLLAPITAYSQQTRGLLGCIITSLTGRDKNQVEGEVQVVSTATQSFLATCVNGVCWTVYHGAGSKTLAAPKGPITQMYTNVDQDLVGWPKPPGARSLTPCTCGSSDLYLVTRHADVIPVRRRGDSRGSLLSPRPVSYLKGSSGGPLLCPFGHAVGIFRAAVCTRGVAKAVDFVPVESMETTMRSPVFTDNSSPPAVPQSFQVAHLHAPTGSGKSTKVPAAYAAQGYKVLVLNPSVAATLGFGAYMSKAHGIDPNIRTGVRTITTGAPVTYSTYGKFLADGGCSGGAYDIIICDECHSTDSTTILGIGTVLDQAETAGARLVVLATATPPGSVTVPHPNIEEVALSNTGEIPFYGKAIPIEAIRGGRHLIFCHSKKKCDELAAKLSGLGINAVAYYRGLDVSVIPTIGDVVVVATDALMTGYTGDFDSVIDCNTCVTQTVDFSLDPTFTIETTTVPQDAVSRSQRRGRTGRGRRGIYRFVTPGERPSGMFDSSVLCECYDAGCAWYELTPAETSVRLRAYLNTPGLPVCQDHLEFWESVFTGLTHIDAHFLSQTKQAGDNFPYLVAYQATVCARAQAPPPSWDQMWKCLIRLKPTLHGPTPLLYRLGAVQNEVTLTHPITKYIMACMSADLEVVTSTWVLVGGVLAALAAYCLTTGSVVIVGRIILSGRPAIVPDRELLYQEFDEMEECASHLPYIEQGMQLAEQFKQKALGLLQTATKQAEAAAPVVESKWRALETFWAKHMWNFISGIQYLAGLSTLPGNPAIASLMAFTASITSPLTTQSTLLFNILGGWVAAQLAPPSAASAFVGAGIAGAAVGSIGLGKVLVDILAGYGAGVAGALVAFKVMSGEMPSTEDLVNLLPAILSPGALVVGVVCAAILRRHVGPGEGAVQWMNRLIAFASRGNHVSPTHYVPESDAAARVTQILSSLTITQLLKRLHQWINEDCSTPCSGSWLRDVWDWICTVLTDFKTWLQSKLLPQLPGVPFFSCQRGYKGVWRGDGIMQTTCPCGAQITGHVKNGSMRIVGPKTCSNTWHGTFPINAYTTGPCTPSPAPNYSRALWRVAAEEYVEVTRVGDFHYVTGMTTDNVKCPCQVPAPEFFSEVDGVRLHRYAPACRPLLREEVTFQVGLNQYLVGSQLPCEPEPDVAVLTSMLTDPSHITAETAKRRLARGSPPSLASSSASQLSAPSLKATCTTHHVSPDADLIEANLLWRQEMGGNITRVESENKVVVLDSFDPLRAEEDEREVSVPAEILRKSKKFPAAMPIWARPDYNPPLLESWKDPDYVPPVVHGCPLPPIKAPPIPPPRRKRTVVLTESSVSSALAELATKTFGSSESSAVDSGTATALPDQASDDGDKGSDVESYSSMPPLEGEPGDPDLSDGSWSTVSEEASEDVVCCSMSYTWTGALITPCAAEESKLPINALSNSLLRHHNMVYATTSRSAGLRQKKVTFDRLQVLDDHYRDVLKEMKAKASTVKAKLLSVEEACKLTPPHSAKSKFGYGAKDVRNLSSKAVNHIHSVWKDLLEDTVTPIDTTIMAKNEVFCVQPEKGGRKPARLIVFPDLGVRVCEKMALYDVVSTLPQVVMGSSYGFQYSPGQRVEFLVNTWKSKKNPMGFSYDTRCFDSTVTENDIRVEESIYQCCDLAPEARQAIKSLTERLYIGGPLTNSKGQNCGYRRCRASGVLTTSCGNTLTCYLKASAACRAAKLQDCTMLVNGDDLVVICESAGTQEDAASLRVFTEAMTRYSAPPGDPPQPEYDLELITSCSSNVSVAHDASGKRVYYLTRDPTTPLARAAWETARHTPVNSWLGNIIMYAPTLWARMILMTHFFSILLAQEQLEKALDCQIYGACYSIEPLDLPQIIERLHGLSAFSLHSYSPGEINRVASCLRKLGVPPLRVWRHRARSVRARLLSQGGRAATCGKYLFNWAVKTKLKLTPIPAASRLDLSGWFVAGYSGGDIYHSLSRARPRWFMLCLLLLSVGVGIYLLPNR

Regarding `CN1CCN(C(=O)[C@H](CCCCN)NC(=O)Nc2ccc(OCc3ccccc3)cc2)CC1` [Compound 289, (S)-1-[5-AMINO-1-(4-METHYL-PIPERAZINE-1-CARBONYL)-PENTYL]-3-(4-BENZYLOXY-PHENYL)-UREA], the IC50 is > 50 µM.

Turning to `NCCCC[C@H](NC(=O)Nc1ccc(OCc2ccccc2)cc1)C(=O)OCCN` [Compound 259, (S)-6-AMINO-2-[3-(4-BENZYLOXY-PHENYL)-UREIDO]-HEXANOIC ACID (2-AMINO-ETHYL)-ESTER], the IC50 was > 50 µM.

On to `Cc1ccc(NC(=O)[C@H](CCCCN)NC(=O)Nc2ccc(OCc3ccccc3)c(Cl)c2)cc1` [Compound 253, (S)-6-AMINO-2-[3-(4-BENZYLOXY-3-CHLORO-PHENYL)-UREIDO]-HEXANOIC ACID P-TOLYLAMIDE], for which the IC50 lay within 10 to 50 µM.

As to `Cc1ccc(NC(=O)[C@H](CCCCN)NC(=O)OCC2c3ccccc3-c3ccccc32)cc1C` [Compound 216, (S)-[5-AMINO-1-(3,4-DIMETHYL-PHENYLCARBAMOYL)-PENTYL]-CARBAMIC ACID 9H-FLUOREN-9-YLMETHYL ESTER], the IC50 was 10 to 50 µM.

As for `Cc1ccc(NC(=O)[C@H](CCCCN)NC(=O)Nc2ccc(O)cc2)cc1` [Compound 194, (S)-6-AMINO-2-[3-(4-HYDROXY-PHENYL)-UREIDO]-HEXANOIC ACID P-TOLYLAMIDE], the IC50 is > 50 µM.

As to `Cc1ccc(NC(=O)[C@H](CCCCN)NC(=O)Nc2ccc(OCc3ccc(Cl)cc3Cl)cc2)cc1` [Compound 274, (S)-6-AMINO-2-{3-[4-(2,4-DICHLORO-BENZYLOXY)-PHENYL]-UREIDO}-HEXANOIC ACID P-TOLYLAMIDE], the IC50 was < 10 µM.

As to `Cc1ccc(NC(=O)[C@H](CCCCN)NC(=O)NCc2ccc(Cl)cc2)cc1` [Compound 167, (S)-6-AMINO-2-[3-(4-CHLORO-BENZYL)-UREIDO]-HEXANOIC ACID P-TOLYLAMIDE], the IC50 was > 50 µM.

Turning to `Cc1ccc(NC(=O)[C@H](CCCCN)NC(=O)Nc2ccc3c(c2)OCCO3)cc1` [Compound 213, (S)-6-AMINO-2-[3-(2,3-DIHYDRO-BENZO[1,4]DIOXIN-6-YL)-UREIDO]-HEXANOIC ACID P-TOLYLAMIDE], the IC50 is > 50 µM.

In the case of `Cc1ccc(N(C)C(=O)C(CCCCN)NC(=O)OCC2c3ccccc3-c3ccccc32)cc1` [Compound 92, (S)-[5-AMINO-1-(METHYL-P-TOLYL-CARBAMOYL)-PENTYL]-CARBAMIC ACID 9H-FLUOREN-9-YLMETHYL ESTER], the IC50 is > 50 µM.

Regarding `CC(C)(C)c1ccc(NC(=O)CN(CCCCN)C(=O)Nc2ccc(OCc3ccccc3)cc2)cc1` [Compound 282, 2-[1-(4-AMINO-BUTYL)-3-(4-BENZYLOXY-PHENYL)-UREIDO]-N-(4-TERT-BUTYL-PHENYL)-ACETAMIDE], the IC50 was > 50 µM.

Take `Cc1ccc(NC(=O)C(CCCCN)NC(=O)Nc2cccc3ccccc23)cc1` [Compound 71, (S)-6-AMINO-2-(3-NAPHTHALEN-1-YL-UREIDO)-HEXANOIC ACID P-TOLYLAMIDE]: the IC50 was > 50 µM.

Turning to `Cc1ccc(NC(=O)C(CCCCN)NC(=O)CNc2cccc(C(F)(F)F)c2)cc1` [Compound 364, (S)-6-AMINO-2-[2-(3-TRIFLUOROMETHYL-PHENYLAMINO)-ACETYLAMINO]-HEXANOIC ACID P-TOLYLAMIDE], the IC50 was > 50 µM.

As to `Cc1ccc(NC(=O)C(Cc2cnc[nH]2)NC(=O)OCC2c3ccccc3-c3ccccc32)cc1` [Compound 384, (R)-[2-(3H-IMIDAZOL-4-YL)-1-P-TOLYLCARBAMOYL-ETHYL]-CARBAMIC ACID 9H-FLUOREN-9-YLMETHYL ESTER], the 50% inhibitory concentration (IC50) is > 50 µM.

On to `CCOC(=O)C=Cc1ccc(NC(=O)[C@H](CCCCN)NC(=O)OCC2c3ccccc3-c3ccccc32)cc1` [Compound 59, (S)-3-{4-[6-AMINO-2-((9H-FLUOREN-9-YLMETHOXYCARBONYL)AMINO)-HEXANOYLAMINO]PHENYL}-ACRYLIC ACID ETHYL ESTER], for which the IC50 is 10 to 50 µM.

For `NCCCC[C@H](NC(=O)Nc1ccc(OCc2ccccc2)cc1)C(=O)NC1CC1` [Compound 266, (S)-6-AMINO-2-[3-(4-BENZYLOXY-PHENYL)-UREIDO]-HEXANOIC ACID CYCLOPROPYLAMIDE], the IC50 was > 50 µM.

Take `Cc1cc2cc(NC(=O)[C@H](Cc3ccc(CN)cc3)NC(=O)Nc3ccc4c(c3)Cc3ccccc3-4)ccc2[nH]1` [Compound 235, (S)-3-(4-AMINOMETHYL-PHENYL)-2-[3-(9H-FLUOREN-2-YL)-UREIDO]-N-(2-METHYL-1H-INDOL-5-YL)-PROPIONAMIDE]: the IC50 was < 10 µM.

`NCCCCCCNC(=O)C(Cc1ccccc1)NC(=O)Nc1ccc(OCc2ccccc2)cc1` [Compound 263, (S)—NR-(6-AMINO-HEXYL)-2-13-(4-BENZYLOXY-PHENYL)-UREIDO]-3-PHENYL-PROPIONAMIDE] had an IC50 of 10 to 50 µM.

`NCc1ccc(CNC(=O)[C@@H](NC(=O)Nc2ccc(OCc3ccccc3)cc2)c2ccccc2)cc1` [Compound 304, (S)-N-(4-AMINOMETHYL-BENZYL)-2-[3-(4-BENZYLOXY-PHENYL)-UREIDO]-2-PHENYL-ACETAMIDE] yielded an IC50 of 10 to 50 µM.

`Cc1cc2cc(NC(=O)[C@H](Cc3ccc(CN)cc3)NC(=O)OCC3c4ccccc4-c4ccccc43)ccc2[nH]1` [Compound 215, (S)-[2-(4-AMINOMETHYL-PHENYL)-1-(2-METHYL-1H-INDOL-5-YLCARBAMOYL)-ETHYL]-CARBAMIC ACID 9H-FLUOREN-9-YLMETHYL ESTER]: the IC50 was in the range of 10 to 50 µM.

In turn, `NCc1ccc(NC(=O)[C@@H](NC(=O)OCC2c3ccccc3-c3ccccc32)c2ccccc2)cc1` [Compound 315, (S)-[(4-AMINOMETHYL-PHENYLCARBAMOYL)-PHENYL-METHYL]-CARBAMIC ACID 9H-FLUOREN-9-YLMETHYL ESTER] came in with an IC50 of 10 to 50 µM.

With `Cc1ccc(NC(=O)CC2CN(C(=O)C(C)N)CCN2C(=O)OCC2c3ccccc3-c3ccccc32)cc1` (centres unmarked) [Compound 185, 4-(R-2-AMINO-PROPIONYL)-2-(P-TOLYLCARBAMOYL-METHYL)-PIPERAZINE-1-CARBOXYLIC ACID 9H-FLUOREN-9-YLMETHYL ESTER], the IC50 is > 50 µM.

As for `NCCCC[C@H](NC(=O)Nc1ccc(OCc2ccccc2)cc1)C(=O)N1CCOCC1` [Compound 318, (S)-l -[5-AMINO-1-(MORPHOLINE-4-CARBONYL)-PENTYL]-3-(4-BENZYLOXY-PHENYL)-UREA], the IC50 was in the range of 10 to 50 µM.

In the case of `CC(C)(C)c1ccc(NC(=O)[C@H](Cc2ccc(CN)cc2)NC(=O)NC(c2ccccc2)c2ccccc2)cc1` [Compound 151, (S)-3-(4-AMINOMETHYL-PHENYL)-2-(3-BENZHYDRYL-UREIDO)-N-(4-TERT-BUTYL-PHENYL)-PROPIONAMIDE], the IC50 was < 10 µM.

On to `Cc1ccc(NC(=O)C(CCCCN(C)C)NC(=O)OCC2c3ccccc3-c3ccccc32)cc1` [Compound 124, (S)-(5-DIMETHYLAMINO-1-P-TOLYLCARBAMOYL-PENTYL)-CARBAMIC ACID 9H-FLUOREN-9-YLMETHYL ESTER], for which the IC50 is > 50 µM.

In the case of `NCCCC[C@H](NC(=O)Nc1ccc2c(c1)Cc1ccccc1-2)C(=O)Nc1ccc(C2CCCCC2)cc1` [Compound 226, (S)-6-AMINO-2-[3-(9H-FLUOREN-2-YL)-UREIDO]-HEXANOIC ACID (4-CYCLOHEXYL-PHENYL)-AMIDE], the IC50 was > 50 µM.

Take `Cc1ccc(NC(=O)C(CCCCN)NC(=O)Nc2ccc(OC(C)c3ccccc3)cc2)cc1` [Compound 277, (2S)-6-AMINO-2-{3-[4-(1-PHENYL-ETHOXY)-PHENYL]-UREIDO}-HEXANOIC ACID P-TOLYLAMIDE]: the IC50 is > 50 µM.
